Test results: patent US20250223259A1, “PROTEASE INHIBITORS FOR TREATING OR PREVENTING CORONAVIRUS INFECTION” (Merck Sharp & Dohme LLC, priority 2022, published 2025)

Molecular target: SARS2 coronavirus 3CL protease (Severe acute respiratory syndrome coronavirus 2 (2019-nCoV) (SARS-CoV-2), UniProt P0DTD1)
Experiment: SARS2 Coronavirus 3CL Protease Assay (FRET)
Format: biochemical
Details: SARS2 3CLPro FRET assay; 5 nM enzyme, 30 min pre-incubation with compound, 15 uM peptide substrate, 4 h room temperature

In order of rising IC50:
1. CNC(=O)C(=O)[C@H](CCC(C)(F)F)NC(=O)[C@@H]1[C@H]2CCC[C@H]2CN1C(=O)[C@H](CC(F)(F)F)NC(=O)OC [Example 87, methyl ((S)-1-((1S,3aR,6aS)-1-(((S)-6,6-difluoro-1-(methylamino)-1,2-dioxoheptan-3-yl)carbamoyl)hexahydrocyclopenta[c]pyrrol-2(1H)-yl)-4,4,4-trifluoro-1-oxobutan-2-yl)carbamate]  7 nM
2. CNC(=O)C(=O)[C@H](CCC(C)(F)F)NC(=O)[C@@H]1CC2(CCCCC2)CN1C(=O)[C@@H](NC(=O)OC)C(C)(C)C [Example 62, Methyl ((S)-1-((S)-3-(((S)-6,6-difluoro-1-(methylamino)-1,2-dioxoheptan-3-yl)carbamoyl)-2-azaspiro[4.5]decan-2-yl)-3,3-dimethyl-1-oxobutan-2-yl)carbamate]  8.8 nM
3. CC(F)(F)CC[C@H](NC(=O)[C@@H]1[C@@H]2[C@H](CN1C(=O)[C@@H](NC(=O)OCc1ccccc1)C1CCCCC1)C21CCCCC1)C(=O)C(=O)NC1CC1 [Example 66, Benzyl ((S)-1-cyclohexyl-2-((1R,2S,5S)-2-(((S)-1-(cyclopropylamino)-6,6-difluoro-1,2-dioxoheptan-3-yl)carbamoyl)-3-azaspiro[bicyclo[3.1.0]hexane-6,1'-cyclohexan]-3-yl)-2-oxoethyl)carbamate]  9.9 nM
4. COC(=O)N[C@H](C(=O)N1CC2(CCCCC2)C[C@H]1C(=O)N[C@@H](CCC(C)(F)F)C(=O)C(N)=O)C(C)(C)C [Example 78, Methyl ((S)-1-((S)-3-(((S)-1-amino-6,6-difluoro-1,2-dioxoheptan-3-yl)carbamoyl)-2-azaspiro[4.5]decan-2-yl)-3,3-dimethyl-1-oxobutan-2-yl)carbamate]  12 nM
5. COC(=O)N[C@H](C(=O)N1C[C@H]2CCCC[C@H]2C[C@H]1C(=O)N[C@@H](CCC(C)(F)F)C(=O)C(=O)NC1CC1)C(C)(C)C [Example 80, methyl ((S)-1-((3S,4aS,8aS)-3-(((S)-1-(cyclopropylamino)-6,6-difluoro-1,2-dioxoheptan-3-yl)carbamoyl)octahydroisoquinolin-2(1H)-yl)-3,3-dimethyl-1-oxobutan-2-yl)carbamate]  12 nM
6. COC(=O)N[C@H](C(=O)N1CC[C@@H](C(F)(F)F)C[C@H]1C(=O)N[C@@H](CCC(C)(F)F)C(=O)C(=O)NC1CC1)C(C)(C)C [Example 61, Methyl ((S)-1-((2S,4R)-2-(((S)-1-(cyclopropylamino)-6,6-difluoro-1,2-dioxoheptan-3-yl)carbamoyl)-4-(trifluoromethyl)piperidin-1-yl)-3,3-dimethyl-1-oxobutan-2-yl)carbamate]  16 nM
7. COC(=O)N[C@H](C(=O)N1C[C@H]2[C@@H]([C@H]1C(=O)N[C@@H](CCC(C)(F)F)C(=O)C(=O)NC1CC1)C21CCOCC1)C(C)(C)C [Example 60, Methyl ((S)-1-((1R,2S,5S)-2-(((S)-1-(cyclopropylamino)-6,6-difluoro-1,2-dioxoheptan-3-yl)carbamoyl)tetrahydro-3-azaspiro[bicyclo[3.1.0]hexane-6,4′-pyran]-3-yl)-3,3-dimethyl-1-oxobutan-2-yl)carbamate]  19 nM
8. COC(=O)N[C@H](C(=O)N1C[C@H](C(F)(F)F)C[C@H]1C(=O)N[C@@H](CCC(C)(F)F)C(=O)C(=O)NC1CC1)C(C)(C)C [Example 67, Methyl ((S)-1-((2S,4R)-2-(((S)-1-(cyclopropylamino)-6,6-difluoro-1,2-dioxoheptan-3-yl)carbamoyl)-4-(trifluoromethyl)pyrrolidin-1-yl)-3,3-dimethyl-1-oxobutan-2-yl)carbamate]  20 nM
9. CNC(=O)C(=O)[C@H](CCC(C)(F)F)NC(=O)[C@@H]1[C@H]2CC(C)(C)O[C@H]2CN1C(=O)[C@@H](NC(=O)OC)C(C)(C)C [Example 86, methyl ((S)-1-((3aR,4S,6aR)-4-(((S)-6,6-difluoro-1-(methylamino)-1,2-dioxoheptan-3-yl)carbamoyl)-2,2-dimethylhexahydro-5H-furo[2,3-c]pyrrol-5-yl)-3,3-dimethyl-1-oxobutan-2-yl)carbamate]  20 nM
10. CNC(=O)C(=O)[C@H](CCC(C)(F)F)NC(=O)[C@@H]1[C@H]2CCC[C@H]2CN1C(=O)C(NC(=O)OC)C1(C(F)(F)F)CC1 (stereo partly drawn) [Example 88, methyl (2-((1S,3aR,6aS)-1-(((S)-6,6-difluoro-1-(methylamino)-1,2-dioxoheptan-3-yl)carbamoyl)hexahydrocyclopenta[c]pyrrol-2(1H)-yl)-2-oxo-1-(1-(trifluoromethyl)cyclopropy 1)ethyl)carbamate]  21 nM
11. COC(=O)N[C@H](C(=O)N1CC[C@@H](C(F)(F)F)C[C@H]1C(=O)N[C@@H](CCC(C)(F)F)C(=O)C(=O)NC1CC1)c1ccccc1 [Example 65, Methyl ((S)-2-((2S,4R)-2-(((S)-1-(cyclopropylamino)-6,6-difluoro-1,2-dioxoheptan-3-yl)carbamoyl)-4-(trifluoromethyl)piperidin-1-yl)-2-oxo-1-phenylethyl)carbamate]  24 nM
12. COC(=O)N[C@@H](Cc1ccccc1)C(=O)N1CC[C@@H](C(F)(F)F)C[C@H]1C(=O)N[C@@H](CCC(C)(F)F)C(=O)C(=O)NC1CC1 [Example 68, Methyl ((S)-1-((2S,4R)-2-(((S)-1-(cyclopropylamino)-6,6-difluoro-1,2-dioxoheptan-3-yl)carbamoyl)-4-(trifluoromethyl)piperidin-1-yl)-1-oxo-3-phenylpropan-2-yl)carbamate]  28 nM
13. COC(=O)N[C@H](C(=O)N1C[C@H]2[C@@H]([C@H]1C(=O)N[C@@H](CCC(C)(F)F)C(=O)C(=O)NC1CC1)C21CCCCC1)C(C)(C)C [Example 69, Methyl ((S)-1-((1R,2S,5S)-2-(((S)-1-(cyclopropylamino)-6,6-difluoro-1,2-dioxoheptan-3-yl)carbamoyl)-3-azaspiro[bicyclo[3.1.0]hexane-6,1'-cyclohexan]-3-yl)-3,3-dimethyl-1-oxobutan-2-yl)carbamate]  31 nM
14. COC(=O)N[C@H](C(=O)N1C[C@H](OC(F)(F)F)C[C@H]1C(=O)N[C@@H](CCC(C)(F)F)C(=O)C(=O)NC1CC1)C(C)(C)C [Example 70, Methyl ((S)-1-((2S,4R)-2-(((S)-1-(cyclopropylamino)-6,6-difluoro-1,2-dioxoheptan-3-yl)carbamoyl)-4-(trifluoromethoxy)pyrrolidin-1-yl)-3,3-dimethyl-1-oxobutan-2-yl)carbamate]  36 nM
15. COC(=O)N[C@H](C(=O)N1C2CCC(CC2)[C@H]1C(=O)N[C@@H](CCC(C)(F)F)C(=O)C(=O)NC1CC1)C(C)(C)C [Example 59, Methyl ((S)-1-((S)-3-(((S)-1-(cyclopropylamino)-6,6-difluoro-1,2-dioxoheptan-3-yl)carbamoyl)-2-azabicyclo[2.2.2]octan-2-yl)-3,3-dimethyl-1-oxobutan-2-yl)carbamate]  37 nM
16. COC(=O)N[C@H](C(=O)N1C[C@H](C(F)(F)F)C[C@H]1C(=O)N[C@@H](CCC(C)(F)F)C(=O)C(=O)NC1CC1)C(C)(C)F [Example 71, Methyl ((R)-1-((2S,4R)-2-(((S)-1-(cyclopropylamino)-6,6-difluoro-1,2-dioxoheptan-3-yl)carbamoyl)-4-(trifluoromethyl)pyrrolidin-1-yl)-3-fluoro-3-methyl-1-oxobutan-2-yl)carbamate]  43 nM
17. CNC(=O)C(=O)[C@H](CCC(C)(F)F)NC(=O)[C@@H]1[C@@H](C(F)(F)F)CCN1C(=O)[C@@H](NC(=O)OC)C(C)(C)C [Example 81, methyl ((S)-1-((2S,3S)-2-(((S)-6,6-difluoro-1-(methylamino)-1,2-dioxoheptan-3-yl)carbamoyl)-3-(trifluoromethyl)pyrrolidin-1-yl)-3,3-dimethyl-1-oxobutan-2-yl)carbamate]  44 nM
18. CC(C)OC(=O)N[C@H](C(=O)N1CC2(CCCCC2)C[C@H]1C(=O)N[C@@H](CCC(C)(F)F)C(=O)C(=O)NC1CC1)C1CCCCC1 [Example 50, Isopropyl ((S)-1-cyclohexyl-2-((S)-3-(((S)-1-(cyclopropylamino)-6,6-difluoro-1,2-dioxoheptan-3-yl)carbamoyl)-2-azaspiro[4.5]decan-2-yl)-2-oxoethyl)carbamate]  62 nM
19. COC(=O)N[C@H](C(=O)N1CC2(CCCCC2)C[C@H]1C(=O)N[C@@H](CCC(C)(F)F)C(=O)C(=O)NC1CC1)C1CCOCC1 [Example 74, Methyl ((S)-2-((S)-3-(((S)-1-(cyclopropylamino)-6,6-difluoro-1,2-dioxoheptan-3-yl)carbamoyl)-2-azaspiro[4.5]decan-2-yl)-2-ox0-1-(tetrahydro-2H-pyran-4-yl)ethyl)carbamate]  69 nM
20. CNC(=O)N[C@H](C(=O)N1CC2(CCCCC2)C[C@H]1C(=O)N[C@@H](CCC(C)(F)F)C(=O)C(=O)NC1CC1)C(C)(C)C [Example 75, (S)-N-((S)-1-(cyclopropylamino)-6,6-difluoro-1,2-dioxoheptan-3-yl)-2-((S)-3,3-dimethyl-2-(3-methylureido)butanoyl)-2-azaspiro[4.5]decane-3-carboxamide]  82 nM
21. COC(=O)N[C@H](C(=O)N1CC(C)(C)C[C@H]1C(=O)N[C@@H](CCC(C)(F)F)C(=O)C(=O)NC1CC1)C(C)(C)C [Example 76, Methyl ((S)-1-((S)-2-(((S)-1-(cyclopropylamino)-6,6-difluoro-1,2-dioxoheptan-3-yl)carbamoyl)-4,4-dimethylpyrrolidin-1-yl)-3,3-dimethyl-1-oxobutan-2-yl)carbamate]  87 nM
22. CNC(=O)C(=O)[C@H](CCC(C)(F)F)NC(=O)[C@@H]1CC2(CN1C(=O)[C@@H](NC(=O)OC)C(C)(C)C)CC(F)(F)C2 [Example 53, Methyl ((S)-1-((S)-7-(((S)-6,6-difluoro-1-(methylamino)-1,2-dioxoheptan-3-yl)carbamoyl)-2,2-difluoro-6-azaspiro[3.4]octan-6-yl)-3,3-dimethyl-1-oxobutan-2-yl)carbamate]  196 nM
23. CNC(=O)C(=O)[C@H](CCC(C)(F)F)NC(=O)[C@@H]1CC[C@H](C)N1C(=O)[C@@H](NC(=O)OC)C(C)(C)C [Example 85, methyl ((S)-1-((2S,5S)-2-(((S)-6,6-difluoro-1-(methylamino)-1,2-dioxoheptan-3-yl)carbamoyl)-5-methylpyrrolidin-1-yl)-3,3-dimethyl-1-oxobutan-2-yl)carbamate]  257 nM
